Values quoted from earlier work in patent publication US20230203007A1, “PYRIDINYLACETAMIDE DERIVATIVES AS SODIUM CHANNEL ACTIVATORS” (priority 2021, published 2023).

What was measured:
Nav1.2 = Nav1.2 (Homo sapiens, UniProt Q99250); conditions: relative to Nav1.1 activation
Nav1.5 = Nav1.5 (Homo sapiens, UniProt Q14524); conditions: relative to Nav1.1 activation
Nav1.1 = biological target: T1, Nav1.1 (Homo sapiens, UniProt P35498); conditions: Nav1.1-expressing HEK cells
T1 construct: host or cells: HEK cells

Nav1.2, sequence (Q99250 whole entry): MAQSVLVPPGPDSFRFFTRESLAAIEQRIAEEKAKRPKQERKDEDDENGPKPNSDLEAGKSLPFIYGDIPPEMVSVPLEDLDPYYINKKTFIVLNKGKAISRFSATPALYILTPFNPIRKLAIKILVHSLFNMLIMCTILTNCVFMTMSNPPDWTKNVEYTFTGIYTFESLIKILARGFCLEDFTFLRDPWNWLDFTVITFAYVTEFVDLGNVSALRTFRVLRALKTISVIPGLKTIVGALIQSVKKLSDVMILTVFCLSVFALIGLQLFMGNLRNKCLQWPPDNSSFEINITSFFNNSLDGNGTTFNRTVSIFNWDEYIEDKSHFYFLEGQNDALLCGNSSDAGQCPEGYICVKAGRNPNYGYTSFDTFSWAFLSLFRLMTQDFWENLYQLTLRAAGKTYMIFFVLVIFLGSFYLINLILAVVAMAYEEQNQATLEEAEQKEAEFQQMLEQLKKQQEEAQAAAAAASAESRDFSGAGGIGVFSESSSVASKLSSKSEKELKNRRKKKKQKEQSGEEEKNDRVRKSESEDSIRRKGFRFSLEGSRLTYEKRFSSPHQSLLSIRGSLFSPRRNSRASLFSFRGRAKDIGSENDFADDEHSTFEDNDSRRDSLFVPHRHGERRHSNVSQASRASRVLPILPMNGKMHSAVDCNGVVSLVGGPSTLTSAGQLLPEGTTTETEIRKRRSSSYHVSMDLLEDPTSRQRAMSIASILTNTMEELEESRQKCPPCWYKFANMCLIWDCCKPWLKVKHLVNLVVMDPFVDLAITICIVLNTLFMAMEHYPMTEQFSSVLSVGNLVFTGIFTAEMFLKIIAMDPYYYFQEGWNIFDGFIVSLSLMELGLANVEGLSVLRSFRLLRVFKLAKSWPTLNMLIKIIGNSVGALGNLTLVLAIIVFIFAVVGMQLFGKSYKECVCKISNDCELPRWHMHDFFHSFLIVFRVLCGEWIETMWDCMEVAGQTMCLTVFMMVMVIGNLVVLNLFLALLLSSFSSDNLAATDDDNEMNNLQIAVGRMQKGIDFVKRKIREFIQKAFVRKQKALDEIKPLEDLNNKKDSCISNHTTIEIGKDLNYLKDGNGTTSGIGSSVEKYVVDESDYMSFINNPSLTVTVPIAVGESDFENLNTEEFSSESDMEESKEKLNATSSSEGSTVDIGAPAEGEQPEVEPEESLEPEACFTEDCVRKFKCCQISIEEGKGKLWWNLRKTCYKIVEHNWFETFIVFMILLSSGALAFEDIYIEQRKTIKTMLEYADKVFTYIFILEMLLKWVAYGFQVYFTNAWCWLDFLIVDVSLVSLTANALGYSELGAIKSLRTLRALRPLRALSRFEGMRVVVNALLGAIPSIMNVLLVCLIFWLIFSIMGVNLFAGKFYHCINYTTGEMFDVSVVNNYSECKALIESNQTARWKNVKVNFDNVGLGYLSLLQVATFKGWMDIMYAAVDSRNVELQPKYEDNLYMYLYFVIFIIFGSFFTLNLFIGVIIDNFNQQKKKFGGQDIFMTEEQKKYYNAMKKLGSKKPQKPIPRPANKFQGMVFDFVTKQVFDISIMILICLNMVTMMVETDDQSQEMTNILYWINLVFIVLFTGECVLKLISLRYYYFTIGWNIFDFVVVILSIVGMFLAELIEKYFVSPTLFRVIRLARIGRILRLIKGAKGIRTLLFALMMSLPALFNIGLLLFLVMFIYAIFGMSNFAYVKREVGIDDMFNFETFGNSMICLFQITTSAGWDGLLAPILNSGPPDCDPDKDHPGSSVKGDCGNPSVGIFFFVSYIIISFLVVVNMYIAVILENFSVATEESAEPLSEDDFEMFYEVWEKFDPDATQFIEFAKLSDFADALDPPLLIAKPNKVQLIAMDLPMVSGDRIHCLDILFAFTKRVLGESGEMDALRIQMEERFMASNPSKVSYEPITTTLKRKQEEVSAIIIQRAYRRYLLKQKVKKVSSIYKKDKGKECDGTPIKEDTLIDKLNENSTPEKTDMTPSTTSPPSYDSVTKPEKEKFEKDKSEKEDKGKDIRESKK
Nav1.5, sequence (Q14524 whole entry): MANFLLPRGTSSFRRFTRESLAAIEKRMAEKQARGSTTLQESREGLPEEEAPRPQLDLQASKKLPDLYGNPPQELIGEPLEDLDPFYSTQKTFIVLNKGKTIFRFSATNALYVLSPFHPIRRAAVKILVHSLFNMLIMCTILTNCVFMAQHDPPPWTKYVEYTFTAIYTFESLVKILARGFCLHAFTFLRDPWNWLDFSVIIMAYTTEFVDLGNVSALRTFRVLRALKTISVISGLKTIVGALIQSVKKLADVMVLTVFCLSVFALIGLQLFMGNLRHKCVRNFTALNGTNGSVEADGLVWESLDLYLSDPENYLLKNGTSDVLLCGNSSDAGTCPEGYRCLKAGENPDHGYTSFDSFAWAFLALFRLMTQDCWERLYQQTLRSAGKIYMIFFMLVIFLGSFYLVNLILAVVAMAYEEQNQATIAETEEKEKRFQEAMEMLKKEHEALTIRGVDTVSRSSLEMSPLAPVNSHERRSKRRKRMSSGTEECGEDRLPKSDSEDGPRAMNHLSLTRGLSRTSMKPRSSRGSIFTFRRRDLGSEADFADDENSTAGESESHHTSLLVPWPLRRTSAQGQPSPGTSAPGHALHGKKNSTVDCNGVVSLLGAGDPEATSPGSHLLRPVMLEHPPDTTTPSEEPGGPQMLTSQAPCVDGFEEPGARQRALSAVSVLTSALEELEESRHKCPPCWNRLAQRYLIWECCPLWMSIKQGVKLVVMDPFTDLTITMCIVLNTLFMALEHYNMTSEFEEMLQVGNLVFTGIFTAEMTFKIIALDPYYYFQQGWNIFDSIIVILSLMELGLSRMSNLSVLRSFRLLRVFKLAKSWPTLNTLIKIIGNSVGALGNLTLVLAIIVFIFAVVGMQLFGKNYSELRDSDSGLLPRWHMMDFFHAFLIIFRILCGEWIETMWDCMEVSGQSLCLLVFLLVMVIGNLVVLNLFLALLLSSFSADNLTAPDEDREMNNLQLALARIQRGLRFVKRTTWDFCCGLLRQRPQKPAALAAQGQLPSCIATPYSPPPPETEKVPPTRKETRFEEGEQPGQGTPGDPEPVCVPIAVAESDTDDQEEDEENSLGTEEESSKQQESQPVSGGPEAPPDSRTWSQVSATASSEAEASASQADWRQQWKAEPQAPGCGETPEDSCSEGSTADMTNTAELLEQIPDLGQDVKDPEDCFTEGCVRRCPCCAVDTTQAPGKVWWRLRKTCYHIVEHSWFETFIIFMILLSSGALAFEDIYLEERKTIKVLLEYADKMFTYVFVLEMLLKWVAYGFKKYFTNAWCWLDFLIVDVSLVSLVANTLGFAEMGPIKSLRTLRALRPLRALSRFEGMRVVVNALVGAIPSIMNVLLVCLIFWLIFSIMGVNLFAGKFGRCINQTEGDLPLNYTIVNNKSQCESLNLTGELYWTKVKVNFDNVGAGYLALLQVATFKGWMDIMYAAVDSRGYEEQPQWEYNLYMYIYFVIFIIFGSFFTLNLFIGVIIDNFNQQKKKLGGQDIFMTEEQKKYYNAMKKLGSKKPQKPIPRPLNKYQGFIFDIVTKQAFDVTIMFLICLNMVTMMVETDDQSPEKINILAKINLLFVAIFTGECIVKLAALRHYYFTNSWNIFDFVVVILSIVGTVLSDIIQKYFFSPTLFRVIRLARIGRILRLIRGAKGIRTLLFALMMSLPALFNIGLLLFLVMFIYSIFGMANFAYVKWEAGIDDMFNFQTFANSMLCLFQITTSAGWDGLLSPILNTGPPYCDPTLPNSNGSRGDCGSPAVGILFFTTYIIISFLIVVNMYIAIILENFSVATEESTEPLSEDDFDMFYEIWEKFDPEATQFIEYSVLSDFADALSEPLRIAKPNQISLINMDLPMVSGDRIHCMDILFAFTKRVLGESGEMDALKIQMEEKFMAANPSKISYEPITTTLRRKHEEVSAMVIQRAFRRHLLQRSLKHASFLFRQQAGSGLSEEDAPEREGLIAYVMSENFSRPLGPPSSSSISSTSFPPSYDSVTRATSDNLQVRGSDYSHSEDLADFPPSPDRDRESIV

SMILES: CCCCNS(=O)(=O)c1ccc(OC)c(-c2nnc3c4ccccc4c(C)nn23)c1 [Lu AE98134]
- selectivity against Nav1.2 (Nav1.2): moderate selectivity
- selectivity against Nav1.5 (Nav1.5): low selectivity
- concentration from which the total area under the curve for the duration of the depolarizing pulse is increased (Nav1.1): ≥ 1 µM
